Activity calls are given as the source filed them. The rule behind the calls is not given here.
tested on: West Nile virus; test: Antiviral activity against WNV infected in African green monkey Vero cells assessed as viral growth inhibition pre-infected with virus for 2 hrs followed by compound addition and measured after compound washout at 5 hrs post infection; assay type: functional, organism-based; details: time 3.0 hrs

Structure (SMILES) | Activity
OC[C@H]1O[C@@H](n2cnc3c(NCc4ccc(-c5cccc(C(F)(F)F)c5)cc4)ncnc32)[C@H](O)[C@@H]1O | inactive
OC[C@H]1O[C@@H](n2cnc3c(NCc4ccc(C#CC5=CCCCC5)cc4)ncnc32)[C@H](O)[C@@H]1O | inactive

tested on: not listed separately; test: Selectivity index, ratio of CC50 for human A549 cells to EC50 for TBEV infected in human A549 cells; assay type: toxicity, cell-based; details: read-out: Ratio CC50/EC50

Structure (SMILES) | selectivity ratio
CCC(CC)COC(=O)[C@H](C)N[P@](=O)(OC[C@H]1O[C@@](C#N)(c2ccc3c(N)ncnn23)[C@H](O)[C@@H]1O)Oc1ccccc1 [REMDESIVIR] | 4.8

tested on: Tick-borne encephalitis virus; test: Antiviral activity against TBEV infected in porcine PEK cells pre-infected for 1 hr followed by cell addition for 1 hrs and measured after 6 days; assay type: functional, organism-based; details: not given

Structure (SMILES) | EC50 [µM]
Nc1onc(C(=O)OCC23CC4CC(CC(C4)C2)C3)c1CCc1ccccc1 | 1.8

tested on: Tick-borne encephalitis virus; test: Antiviral activity against TBEV infected in porcine PEK cells assessed as reduction in cytopathic effect by plaque reduction assay; assay type: functional, organism-based; details: not given

Structure (SMILES) | EC50 [µM]
OC[C@H]1O[C@@H](n2cnc3c(NCc4ccc(C(F)(F)F)cc4)ncnc32)[C@H](O)[C@@H]1O | > 50
OC[C@H]1O[C@@H](n2cnc3c(NCc4ccc(C#Cc5ccccc5)cc4)ncnc32)[C@H](O)[C@@H]1O | 36.6
OC[C@H]1O[C@@H](n2cnc3c(NCc4ccc(-c5ccccc5)cc4)ncnc32)[C@H](O)[C@@H]1O | > 50
OC[C@H]1O[C@@H](n2cnc3c(NCc4cccc(C(F)(F)F)c4)ncnc32)[C@H](O)[C@@H]1O | > 50
OC[C@H]1O[C@@H](n2cnc3c(NCc4ccc(-c5cccc(C(F)(F)F)c5)cc4)ncnc32)[C@H](O)[C@@H]1O | 6
OC[C@H]1O[C@@H](n2cnc3c(NCc4ccc(-c5ccc(C(F)(F)F)cc5)cc4)ncnc32)[C@H](O)[C@@H]1O | 4.7
OC[C@H]1O[C@@H](n2cnc3c(NCc4ccc(C#CC5CC5)cc4)ncnc32)[C@H](O)[C@@H]1O | > 50
OC[C@H]1O[C@@H](n2cnc3c(NCc4ccc(C#CC5=CCCCC5)cc4)ncnc32)[C@H](O)[C@@H]1O | 10
OC[C@H]1O[C@@H](n2cnc3c(NCc4ccc(C#CC5CCCC5)cc4)ncnc32)[C@H](O)[C@@H]1O | 8

tested on: Tick-borne encephalitis virus; test: Antiviral activity against TBEV infected in human A549 cells assessed as inhibition of virus induced cytopathic effect; assay type: functional, organism-based; details: Tick-borne encephalitis virus, A549

Structure (SMILES) | EC50 [µM]
CCC(CC)COC(=O)[C@H](C)N[P@](=O)(OC[C@H]1O[C@@](C#N)(c2ccc3c(N)ncnn23)[C@H](O)[C@@H]1O)Oc1ccccc1 [REMDESIVIR] | 2.1

same assay, conditions: a549

Structure (SMILES) | EC50 [µM]
CCC(CC)COC(=O)[C@H](C)N[P@](=O)(OC[C@H]1O[C@@](C#N)(c2ccc3c(N)ncnn23)[C@H](O)[C@@H]1O)Oc1ccccc1 [REMDESIVIR] | 3.5

tested on: West Nile virus; test: Antiviral activity against WNV infected in African green monkey Vero cells assessed as viral growth inhibition pre-infected with virus for 5 hrs followed by compound addition and measured 24 hrs post infection; assay type: functional, organism-based; details: time 19.0 hrs

Structure (SMILES) | Activity
OC[C@H]1O[C@@H](n2cnc3c(NCc4ccc(-c5cccc(C(F)(F)F)c5)cc4)ncnc32)[C@H](O)[C@@H]1O | Active
OC[C@H]1O[C@@H](n2cnc3c(NCc4ccc(C#CC5=CCCCC5)cc4)ncnc32)[C@H](O)[C@@H]1O | Active

tested on: not listed separately; test: Cytotoxicity against African green monkey Vero cells assessed as reduction in cell viability after 24 hrs by resazurin staining based analysis; assay type: toxicity; details: chlorocebus sabaeus

Structure (SMILES) | CC50 at 24 h [µM]
OC[C@H]1O[C@@H](n2cnc3c(NCc4ccc(-c5ccccc5)cc4)ncnc32)[C@H](O)[C@@H]1O | > 50
OC[C@H]1O[C@@H](n2cnc3c(NCc4ccc(-c5cccc(C(F)(F)F)c5)cc4)ncnc32)[C@H](O)[C@@H]1O | > 50

tested on: West Nile virus; test: Antiviral activity against WNV infected in African green monkey Vero cells assessed as viral growth inhibition pre-infected with virus for 2 hrs followed by compound addition and measured 24 hrs post infection by time of addition assay; assay type: functional, organism-based; details: time 22.0 hrs

Structure (SMILES) | Activity
OC[C@H]1O[C@@H](n2cnc3c(NCc4ccc(-c5cccc(C(F)(F)F)c5)cc4)ncnc32)[C@H](O)[C@@H]1O | Active
OC[C@H]1O[C@@H](n2cnc3c(NCc4ccc(C#CC5=CCCCC5)cc4)ncnc32)[C@H](O)[C@@H]1O | Active

tested on: not listed separately; test: Cytotoxicity against porcine PEK cells assessed as reduction in cell viability after 24 hrs by resazurin staining based analysis; assay type: toxicity, Sus scrofa; details: pig

Structure (SMILES) | CC50 at 24 h [µM]
OC[C@H]1O[C@@H](n2cnc3c(NCc4ccc(-c5ccccc5)cc4)ncnc32)[C@H](O)[C@@H]1O | > 50
OC[C@H]1O[C@@H](n2cnc3c(NCc4ccc(-c5cccc(C(F)(F)F)c5)cc4)ncnc32)[C@H](O)[C@@H]1O | > 50

tested on: West Nile virus; test: Antiviral activity against WNV infected in African green monkey Vero cells assessed as viral growth inhibition measured after 24 hrs; assay type: functional, organism-based; details: not given

Structure (SMILES) | Activity
OC[C@H]1O[C@@H](n2cnc3c(NCc4ccc(-c5cccc(C(F)(F)F)c5)cc4)ncnc32)[C@H](O)[C@@H]1O | inactive
OC[C@H]1O[C@@H](n2cnc3c(NCc4ccc(C#CC5=CCCCC5)cc4)ncnc32)[C@H](O)[C@@H]1O | inactive

tested on: West Nile virus; test: Antiviral activity against WNV infected in African green monkey Vero cells assessed as reduction in cytopathic effect by plaque reduction assay; assay type: functional, organism-based; details: not given

Structure (SMILES) | EC50 [µM]
OC[C@H]1O[C@@H](n2cnc3c(NCc4ccc(C(F)(F)F)cc4)ncnc32)[C@H](O)[C@@H]1O | 7
OC[C@H]1O[C@@H](n2cnc3c(NCc4ccc(C#Cc5ccccc5)cc4)ncnc32)[C@H](O)[C@@H]1O | 9.7
OC[C@H]1O[C@@H](n2cnc3c(NCc4ccc(-c5ccccc5)cc4)ncnc32)[C@H](O)[C@@H]1O | 13
OC[C@H]1O[C@@H](n2cnc3c(NCc4cccc(C(F)(F)F)c4)ncnc32)[C@H](O)[C@@H]1O | 8
OC[C@H]1O[C@@H](n2cnc3c(NCc4ccc(-c5cccc(C(F)(F)F)c5)cc4)ncnc32)[C@H](O)[C@@H]1O | 6.8
OC[C@H]1O[C@@H](n2cnc3c(NCc4ccc(-c5ccc(C(F)(F)F)cc5)cc4)ncnc32)[C@H](O)[C@@H]1O | 8.3
OC[C@H]1O[C@@H](n2cnc3c(NCc4ccc(C#CC5CC5)cc4)ncnc32)[C@H](O)[C@@H]1O | 32
OC[C@H]1O[C@@H](n2cnc3c(NCc4ccc(C#CC5=CCCCC5)cc4)ncnc32)[C@H](O)[C@@H]1O | 5
OC[C@H]1O[C@@H](n2cnc3c(NCc4ccc(C#CC5CCCC5)cc4)ncnc32)[C@H](O)[C@@H]1O | 18

tested on: not listed separately; test: Cytotoxicity against African green monkey Vero cells assessed as reduction in cell viability after 7 days by resazurin staining based analysis; assay type: toxicity; details: chlorocebus sabaeus, time 7 day

Structure (SMILES) | CC50 at 168 h [µM]
OC[C@H]1O[C@@H](n2cnc3c(NCc4ccc(C(F)(F)F)cc4)ncnc32)[C@H](O)[C@@H]1O | > 50
OC[C@H]1O[C@@H](n2cnc3c(NCc4ccc(C#Cc5ccccc5)cc4)ncnc32)[C@H](O)[C@@H]1O | > 50
OC[C@H]1O[C@@H](n2cnc3c(NCc4ccc(-c5ccccc5)cc4)ncnc32)[C@H](O)[C@@H]1O | > 50
OC[C@H]1O[C@@H](n2cnc3c(NCc4cccc(C(F)(F)F)c4)ncnc32)[C@H](O)[C@@H]1O | > 50
OC[C@H]1O[C@@H](n2cnc3c(NCc4ccc(-c5cccc(C(F)(F)F)c5)cc4)ncnc32)[C@H](O)[C@@H]1O | > 50
OC[C@H]1O[C@@H](n2cnc3c(NCc4ccc(-c5ccc(C(F)(F)F)cc5)cc4)ncnc32)[C@H](O)[C@@H]1O | 28.5
OC[C@H]1O[C@@H](n2cnc3c(NCc4ccc(C#CC5CC5)cc4)ncnc32)[C@H](O)[C@@H]1O | > 50
OC[C@H]1O[C@@H](n2cnc3c(NCc4ccc(C#CC5=CCCCC5)cc4)ncnc32)[C@H](O)[C@@H]1O | > 50
OC[C@H]1O[C@@H](n2cnc3c(NCc4ccc(C#CC5CCCC5)cc4)ncnc32)[C@H](O)[C@@H]1O | 38
Nc1onc(C(=O)OCC23CC4CC(CC(C4)C2)C3)c1CCc1ccccc1 | > 100

tested on: West Nile virus; test: Antiviral activity against WNV infected in African green monkey Vero cells; assay type: functional, organism-based; details: not given

Structure (SMILES) | EC50 [µM]
Nc1onc(C(=O)OCC23CC4CC(CC(C4)C2)C3)c1CCc1ccccc1 | 1.8

tested on: not listed separately; test: Cytotoxicity against human RD cells; assay type: toxicity, cell-based; details: not given

Structure (SMILES) | CC50 [µM]
OC[C@H]1O[C@@H](n2cnc3c(NCc4cccc(C(F)(F)F)c4)ncnc32)[C@H](O)[C@@H]1O | > 235

tested on: West Nile virus; test: Antiviral activity against WNV infected in African green monkey Vero cells assessed as viral growth inhibition pre-treated with compound for 2 hrs followed by viral infection and measured 24 hrs post infection; assay type: functional, organism-based; details: time 26.0 hrs

Structure (SMILES) | Activity
OC[C@H]1O[C@@H](n2cnc3c(NCc4ccc(-c5cccc(C(F)(F)F)c5)cc4)ncnc32)[C@H](O)[C@@H]1O | inactive
OC[C@H]1O[C@@H](n2cnc3c(NCc4ccc(C#CC5=CCCCC5)cc4)ncnc32)[C@H](O)[C@@H]1O | inactive

tested on: not listed separately; test: Cytotoxicity against porcine PEK cells assessed as reduction in cell viability after 7 days by resazurin staining based analysis; assay type: toxicity, Sus scrofa; details: pig, time 7 day

Structure (SMILES) | CC50 at 168 h [µM]
OC[C@H]1O[C@@H](n2cnc3c(NCc4ccc(C(F)(F)F)cc4)ncnc32)[C@H](O)[C@@H]1O | > 50
OC[C@H]1O[C@@H](n2cnc3c(NCc4ccc(C#Cc5ccccc5)cc4)ncnc32)[C@H](O)[C@@H]1O | > 50
OC[C@H]1O[C@@H](n2cnc3c(NCc4ccc(-c5ccccc5)cc4)ncnc32)[C@H](O)[C@@H]1O | > 50
OC[C@H]1O[C@@H](n2cnc3c(NCc4cccc(C(F)(F)F)c4)ncnc32)[C@H](O)[C@@H]1O | > 50
OC[C@H]1O[C@@H](n2cnc3c(NCc4ccc(-c5cccc(C(F)(F)F)c5)cc4)ncnc32)[C@H](O)[C@@H]1O | 36.7
OC[C@H]1O[C@@H](n2cnc3c(NCc4ccc(-c5ccc(C(F)(F)F)cc5)cc4)ncnc32)[C@H](O)[C@@H]1O | 26
OC[C@H]1O[C@@H](n2cnc3c(NCc4ccc(C#CC5CC5)cc4)ncnc32)[C@H](O)[C@@H]1O | > 50
OC[C@H]1O[C@@H](n2cnc3c(NCc4ccc(C#CC5=CCCCC5)cc4)ncnc32)[C@H](O)[C@@H]1O | 36.6
OC[C@H]1O[C@@H](n2cnc3c(NCc4ccc(C#CC5CCCC5)cc4)ncnc32)[C@H](O)[C@@H]1O | 37
Nc1onc(C(=O)OCC23CC4CC(CC(C4)C2)C3)c1CCc1ccccc1 | > 100

tested on: Yellow fever virus; test: Antiviral activity against YFV infected in African green monkey Vero cells assessed as reduction in cytopathic effect by plaque reduction assay; assay type: functional, organism-based; details: not given

Structure (SMILES) | EC50 [µM]
OC[C@H]1O[C@@H](n2cnc3c(NCc4ccc(C(F)(F)F)cc4)ncnc32)[C@H](O)[C@@H]1O | > 50
OC[C@H]1O[C@@H](n2cnc3c(NCc4ccc(C#Cc5ccccc5)cc4)ncnc32)[C@H](O)[C@@H]1O | 33
OC[C@H]1O[C@@H](n2cnc3c(NCc4ccc(-c5ccccc5)cc4)ncnc32)[C@H](O)[C@@H]1O | > 50
OC[C@H]1O[C@@H](n2cnc3c(NCc4cccc(C(F)(F)F)c4)ncnc32)[C@H](O)[C@@H]1O | > 50
OC[C@H]1O[C@@H](n2cnc3c(NCc4ccc(-c5cccc(C(F)(F)F)c5)cc4)ncnc32)[C@H](O)[C@@H]1O | 31
OC[C@H]1O[C@@H](n2cnc3c(NCc4ccc(-c5ccc(C(F)(F)F)cc5)cc4)ncnc32)[C@H](O)[C@@H]1O | 27
OC[C@H]1O[C@@H](n2cnc3c(NCc4ccc(C#CC5CC5)cc4)ncnc32)[C@H](O)[C@@H]1O | > 50
OC[C@H]1O[C@@H](n2cnc3c(NCc4ccc(C#CC5=CCCCC5)cc4)ncnc32)[C@H](O)[C@@H]1O | 24
OC[C@H]1O[C@@H](n2cnc3c(NCc4ccc(C#CC5CCCC5)cc4)ncnc32)[C@H](O)[C@@H]1O | 17.8
Nc1onc(C(=O)OCC23CC4CC(CC(C4)C2)C3)c1CCc1ccccc1 | 2.2
